From article doi:10.1101/2021.04.08.439011v1 (biorxiv, 2021)

How the values were obtained:
Conditions in all cases: 0.1 µM; binder
PAK2 = PAK2 (Homo sapiens, UniProt Q13177)
EPHA8 = EPHA8 (Homo sapiens, UniProt P29322)
CAMK2G = CAMK2G (Homo sapiens, UniProt Q13555)
PAK4 = PAK4 (Homo sapiens, UniProt O96013)
TEC = TEC (Homo sapiens, UniProt P42680)
SNARK = SNARK (Homo sapiens, UniProt Q9H093)
CDK19 = CDK19 (Homo sapiens, UniProt Q9BWU1)
MAPKAPK5 = MAPKAPK5 (Homo sapiens, UniProt Q8IW41)
FES = FES (Homo sapiens, UniProt P07332)
Chain of FES (P07332 whole entry): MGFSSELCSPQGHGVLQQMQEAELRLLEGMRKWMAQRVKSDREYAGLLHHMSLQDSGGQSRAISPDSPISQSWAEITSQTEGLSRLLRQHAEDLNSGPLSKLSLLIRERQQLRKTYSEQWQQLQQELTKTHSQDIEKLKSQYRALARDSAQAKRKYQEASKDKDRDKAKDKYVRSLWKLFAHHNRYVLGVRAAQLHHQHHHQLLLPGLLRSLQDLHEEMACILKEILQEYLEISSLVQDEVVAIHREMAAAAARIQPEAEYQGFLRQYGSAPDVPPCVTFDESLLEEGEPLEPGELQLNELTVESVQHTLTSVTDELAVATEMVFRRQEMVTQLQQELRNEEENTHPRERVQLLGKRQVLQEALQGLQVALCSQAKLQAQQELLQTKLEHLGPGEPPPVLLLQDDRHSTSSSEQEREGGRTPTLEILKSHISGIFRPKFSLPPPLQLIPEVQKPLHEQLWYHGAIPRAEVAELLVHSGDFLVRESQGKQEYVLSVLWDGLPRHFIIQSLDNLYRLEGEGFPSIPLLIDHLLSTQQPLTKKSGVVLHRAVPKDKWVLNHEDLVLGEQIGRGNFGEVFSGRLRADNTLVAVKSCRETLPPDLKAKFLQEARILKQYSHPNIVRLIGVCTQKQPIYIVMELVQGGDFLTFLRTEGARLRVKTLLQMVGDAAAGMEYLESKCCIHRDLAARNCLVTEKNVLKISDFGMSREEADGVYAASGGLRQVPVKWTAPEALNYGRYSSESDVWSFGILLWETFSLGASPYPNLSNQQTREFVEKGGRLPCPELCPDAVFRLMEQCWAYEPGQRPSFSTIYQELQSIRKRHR

FLT1 = FLT1 (Homo sapiens, UniProt P17948)
CSK = CSK (Homo sapiens, UniProt P41240)
DCAMKL3 = DCAMKL3 (Homo sapiens, UniProt Q9C098)
NEK1 = NEK1 (Homo sapiens, UniProt Q96PY6)
NEK11 = NEK11 (Homo sapiens, UniProt Q8NG66)
LRRK2 = LRRK2 (Homo sapiens, UniProt Q5S007)
MEK2 = MEK2 (Homo sapiens, UniProt P36507)
Chain of MEK2 (P36507 whole entry): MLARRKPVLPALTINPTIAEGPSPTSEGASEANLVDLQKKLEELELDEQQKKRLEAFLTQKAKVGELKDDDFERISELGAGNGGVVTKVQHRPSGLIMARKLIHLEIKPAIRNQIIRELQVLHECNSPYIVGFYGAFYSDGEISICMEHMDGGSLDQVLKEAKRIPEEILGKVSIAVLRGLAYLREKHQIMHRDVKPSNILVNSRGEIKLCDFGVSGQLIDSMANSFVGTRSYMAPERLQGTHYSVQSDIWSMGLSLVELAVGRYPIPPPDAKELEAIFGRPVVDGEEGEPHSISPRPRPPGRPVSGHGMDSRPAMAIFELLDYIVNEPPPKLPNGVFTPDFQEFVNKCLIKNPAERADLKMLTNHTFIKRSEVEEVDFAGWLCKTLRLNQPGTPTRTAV

p38-alpha = p38-alpha (Homo sapiens, UniProt Q16539)
Chain of p38-alpha (Q16539 whole entry): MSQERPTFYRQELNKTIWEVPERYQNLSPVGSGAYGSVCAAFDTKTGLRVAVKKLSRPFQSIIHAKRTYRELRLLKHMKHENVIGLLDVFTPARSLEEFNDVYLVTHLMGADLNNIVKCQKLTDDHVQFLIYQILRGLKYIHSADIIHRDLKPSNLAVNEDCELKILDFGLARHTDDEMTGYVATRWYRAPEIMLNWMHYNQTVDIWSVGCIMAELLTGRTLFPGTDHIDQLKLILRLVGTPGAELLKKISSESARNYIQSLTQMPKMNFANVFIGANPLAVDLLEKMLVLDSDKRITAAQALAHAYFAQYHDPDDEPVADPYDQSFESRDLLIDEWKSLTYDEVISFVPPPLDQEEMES

AMPK-alpha1 = AMPK-alpha1 (Homo sapiens, UniProt Q13131)
ACVR1 = ACVR1 (Homo sapiens, UniProt Q04771)
ANKK1 = ANKK1 (Homo sapiens, UniProt Q8NFD2)
PKN1 = PKN1 (Homo sapiens, UniProt Q16512)
CSNK1E = CSNK1E (Homo sapiens, UniProt P49674)
PIM3 = PIM3 (Homo sapiens, UniProt Q86V86)
KIT(V559D,V654A) = KIT(V559D,V654A) (Homo sapiens, UniProt P10721, V559D/V654A)
Chain of KIT(V559D,V654A) (P10721 whole entry V559D/V654A): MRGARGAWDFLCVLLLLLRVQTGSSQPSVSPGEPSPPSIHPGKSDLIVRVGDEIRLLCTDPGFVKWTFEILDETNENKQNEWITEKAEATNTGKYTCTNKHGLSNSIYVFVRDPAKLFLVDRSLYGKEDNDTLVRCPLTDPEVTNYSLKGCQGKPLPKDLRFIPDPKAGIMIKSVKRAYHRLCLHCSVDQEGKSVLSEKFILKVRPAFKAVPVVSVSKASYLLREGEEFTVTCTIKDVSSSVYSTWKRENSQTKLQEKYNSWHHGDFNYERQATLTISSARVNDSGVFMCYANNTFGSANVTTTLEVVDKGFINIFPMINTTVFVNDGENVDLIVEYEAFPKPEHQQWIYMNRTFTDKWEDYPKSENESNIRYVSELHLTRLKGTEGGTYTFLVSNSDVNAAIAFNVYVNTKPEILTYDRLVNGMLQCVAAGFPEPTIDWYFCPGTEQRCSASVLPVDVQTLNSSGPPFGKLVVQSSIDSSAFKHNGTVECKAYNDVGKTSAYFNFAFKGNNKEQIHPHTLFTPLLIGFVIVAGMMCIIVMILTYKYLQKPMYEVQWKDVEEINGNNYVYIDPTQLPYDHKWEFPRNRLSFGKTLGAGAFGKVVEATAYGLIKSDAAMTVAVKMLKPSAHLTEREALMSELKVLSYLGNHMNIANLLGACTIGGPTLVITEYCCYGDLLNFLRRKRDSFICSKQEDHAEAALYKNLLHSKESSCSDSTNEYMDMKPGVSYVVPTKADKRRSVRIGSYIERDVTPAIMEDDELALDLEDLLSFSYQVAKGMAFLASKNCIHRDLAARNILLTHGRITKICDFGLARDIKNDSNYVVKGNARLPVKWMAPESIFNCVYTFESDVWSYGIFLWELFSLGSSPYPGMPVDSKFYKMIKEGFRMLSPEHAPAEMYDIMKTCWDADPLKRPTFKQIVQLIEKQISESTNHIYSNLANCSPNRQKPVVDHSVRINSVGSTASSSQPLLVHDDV

EGFR(L858R) = EGFR(L858R) (Homo sapiens, UniProt P00533, L858R)
ACVR1B = ACVR1B (Homo sapiens, UniProt P36896)
Chain of ACVR1B (P36896 whole entry): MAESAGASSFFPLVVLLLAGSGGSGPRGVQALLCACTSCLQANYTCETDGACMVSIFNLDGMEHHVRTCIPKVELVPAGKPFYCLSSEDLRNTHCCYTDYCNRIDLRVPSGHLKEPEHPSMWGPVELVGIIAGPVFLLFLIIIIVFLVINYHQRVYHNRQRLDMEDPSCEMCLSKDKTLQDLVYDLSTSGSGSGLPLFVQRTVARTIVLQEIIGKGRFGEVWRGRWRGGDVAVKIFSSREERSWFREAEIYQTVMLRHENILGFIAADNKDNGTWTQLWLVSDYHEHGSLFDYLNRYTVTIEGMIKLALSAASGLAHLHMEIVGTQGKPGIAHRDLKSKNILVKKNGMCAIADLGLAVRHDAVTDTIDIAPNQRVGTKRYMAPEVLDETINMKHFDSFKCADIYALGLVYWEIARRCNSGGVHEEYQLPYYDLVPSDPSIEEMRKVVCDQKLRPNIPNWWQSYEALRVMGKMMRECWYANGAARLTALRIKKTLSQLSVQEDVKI

PIK3CA(E545A) = PIK3CA(E545A) (Homo sapiens, UniProt P42336, E545A)
MUSK = MUSK (Homo sapiens, UniProt O15146)
CDK4 = CDK4 (Homo sapiens, UniProt P11802)
Chain of CDK4 (P11802 whole entry): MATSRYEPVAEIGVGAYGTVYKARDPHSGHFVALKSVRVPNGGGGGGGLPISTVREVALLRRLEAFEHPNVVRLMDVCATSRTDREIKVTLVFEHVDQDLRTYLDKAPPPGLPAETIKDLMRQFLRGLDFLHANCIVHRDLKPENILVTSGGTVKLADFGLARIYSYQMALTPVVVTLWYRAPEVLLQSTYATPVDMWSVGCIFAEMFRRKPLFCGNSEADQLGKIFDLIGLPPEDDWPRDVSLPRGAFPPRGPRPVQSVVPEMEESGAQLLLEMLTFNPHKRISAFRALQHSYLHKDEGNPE

SRMS = SRMS (Homo sapiens, UniProt Q9H3Y6)
FLT3(D835H) = FLT3(D835H) (Homo sapiens, UniProt P36888, D835H)

Chain of SNARK (Q9H093 whole entry): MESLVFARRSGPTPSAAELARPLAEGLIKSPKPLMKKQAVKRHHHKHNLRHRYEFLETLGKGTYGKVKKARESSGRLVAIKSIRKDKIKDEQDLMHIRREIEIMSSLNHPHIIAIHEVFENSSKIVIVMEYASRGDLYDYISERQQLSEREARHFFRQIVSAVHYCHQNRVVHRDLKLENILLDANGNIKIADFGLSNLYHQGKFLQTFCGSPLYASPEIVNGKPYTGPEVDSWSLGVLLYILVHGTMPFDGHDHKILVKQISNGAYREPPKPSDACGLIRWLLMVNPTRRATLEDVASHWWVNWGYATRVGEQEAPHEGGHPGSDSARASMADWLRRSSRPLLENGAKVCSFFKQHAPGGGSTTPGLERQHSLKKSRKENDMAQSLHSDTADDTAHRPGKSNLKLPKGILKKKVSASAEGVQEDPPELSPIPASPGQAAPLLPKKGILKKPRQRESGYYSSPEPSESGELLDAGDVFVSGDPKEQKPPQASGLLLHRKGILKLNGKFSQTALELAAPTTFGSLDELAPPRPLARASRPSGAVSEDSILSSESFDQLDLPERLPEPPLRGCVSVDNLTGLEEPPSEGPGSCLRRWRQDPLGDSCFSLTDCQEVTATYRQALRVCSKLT
Chain of PAK2 (Q13177 whole entry): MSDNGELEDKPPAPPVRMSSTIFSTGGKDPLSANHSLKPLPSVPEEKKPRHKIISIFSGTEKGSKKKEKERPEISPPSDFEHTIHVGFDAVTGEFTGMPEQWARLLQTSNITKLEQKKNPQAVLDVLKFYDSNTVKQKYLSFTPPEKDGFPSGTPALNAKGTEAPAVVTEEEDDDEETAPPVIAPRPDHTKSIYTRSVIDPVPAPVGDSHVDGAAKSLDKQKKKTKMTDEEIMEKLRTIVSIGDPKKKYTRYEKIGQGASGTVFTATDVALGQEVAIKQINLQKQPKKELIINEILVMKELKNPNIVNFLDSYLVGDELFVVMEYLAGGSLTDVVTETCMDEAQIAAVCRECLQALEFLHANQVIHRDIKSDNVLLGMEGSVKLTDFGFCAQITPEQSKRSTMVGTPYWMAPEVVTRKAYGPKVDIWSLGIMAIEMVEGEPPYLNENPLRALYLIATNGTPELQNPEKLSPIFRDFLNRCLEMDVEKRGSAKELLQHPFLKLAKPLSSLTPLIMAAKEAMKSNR
Chain of MAPKAPK5 (Q8IW41 whole entry): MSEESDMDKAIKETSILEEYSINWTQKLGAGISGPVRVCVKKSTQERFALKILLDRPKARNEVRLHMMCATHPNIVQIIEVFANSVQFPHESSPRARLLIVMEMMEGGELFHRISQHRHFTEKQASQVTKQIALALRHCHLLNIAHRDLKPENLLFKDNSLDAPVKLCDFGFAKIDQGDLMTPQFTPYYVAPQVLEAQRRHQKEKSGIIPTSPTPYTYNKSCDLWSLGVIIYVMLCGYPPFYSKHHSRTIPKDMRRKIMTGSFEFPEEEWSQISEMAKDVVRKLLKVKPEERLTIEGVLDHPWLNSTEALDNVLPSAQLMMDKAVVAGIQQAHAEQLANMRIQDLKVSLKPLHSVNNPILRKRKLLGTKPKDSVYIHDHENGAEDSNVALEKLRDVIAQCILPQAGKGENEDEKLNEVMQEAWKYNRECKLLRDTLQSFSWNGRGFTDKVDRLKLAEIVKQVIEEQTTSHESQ

For `CNc1ncc2cc(-c3ccc(-c4cccc(C)n4)cc3Cl)c(=O)n(C[C@H]3OC[C@H](N)CO3)c2n1` [compound 6, G-5555], the “Percent Control” value (PAK2) was 13%, the “Percent Control” value (EPHA8) was 100% and the “Percent Control” value (CAMK2G) was 100%. For the same compound, the “Percent Control” value (PAK4) was 100%, the “Percent Control” value (TEC) was 100% and the “Percent Control” value (SNARK) was 19%. For the same compound, the “Percent Control” value (CDK19) was 87%, the “Percent Control” value (MAPKAPK5) was 100% and the “Percent Control” value (FES) was 100%. The “Percent Control” value (FLT1) was 94%, the “Percent Control” value (CSK) was 100% and the “Percent Control” value (DCAMKL3) was 29%. The “Percent Control” value (NEK1) was 100%, the “Percent Control” value (NEK11) was 100% and the “Percent Control” value (LRRK2) was 83%. For the same compound, the “Percent Control” value (MEK2) was 33%, the “Percent Control” value (p38-alpha) was 100% and the “Percent Control” value (AMPK-alpha1) was 95%. For the same compound, the “Percent Control” value (ACVR1) was 97%, the “Percent Control” value (ANKK1) was 91% and the “Percent Control” value (PKN1) was 100%. The “Percent Control” value (CSNK1E) was 100%, the “Percent Control” value (PIM3) was 100% and the “Percent Control” value (KIT(V559D,V654A)) was 77%. For the same compound, the “Percent Control” value (EGFR(L858R)) was 100%, the “Percent Control” value (ACVR1B) was 100% and the “Percent Control” value (PIK3CA(E545A)) was 88%. For the same compound, the “Percent Control” value (MUSK) was 100%, the “Percent Control” value (CDK4) was 100% and the “Percent Control” value (SRMS) was 99%. The “Percent Control” value (FLT3(D835H)) was 89%.
